For 48 molecules, IC50 results are on record in US8338465B2, “Cyclic carboxylic acid rhodanine derivatives for the treatment and prevention of tuberculosis” (priority 2006, dated 2012).

The target of the assay is T1, dihydrolipoamide acyltransferase (DlaT) (Mycobacterium tuberculosis, UniProt P9WIS7).
T1 sequence (P9WIS7 1-553): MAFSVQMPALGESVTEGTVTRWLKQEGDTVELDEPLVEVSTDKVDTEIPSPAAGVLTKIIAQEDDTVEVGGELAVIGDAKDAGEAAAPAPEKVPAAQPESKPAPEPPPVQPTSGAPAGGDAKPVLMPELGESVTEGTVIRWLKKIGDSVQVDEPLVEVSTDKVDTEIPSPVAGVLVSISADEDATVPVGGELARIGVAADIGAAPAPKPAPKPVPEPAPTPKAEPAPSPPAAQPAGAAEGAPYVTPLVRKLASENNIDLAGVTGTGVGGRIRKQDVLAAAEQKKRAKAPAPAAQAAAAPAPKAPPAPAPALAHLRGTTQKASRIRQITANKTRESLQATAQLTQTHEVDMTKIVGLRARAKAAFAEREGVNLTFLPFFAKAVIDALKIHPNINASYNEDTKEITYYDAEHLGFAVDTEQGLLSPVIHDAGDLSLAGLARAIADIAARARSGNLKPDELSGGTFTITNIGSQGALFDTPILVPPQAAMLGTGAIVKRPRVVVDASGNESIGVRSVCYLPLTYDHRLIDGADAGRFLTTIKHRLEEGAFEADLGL
Put plainly: DlaT inhibition (Dlat IC50); DTNB peroxidase assay with Lpd, DlaT and AhpD. The class given is biochemical.

Where [1] appears, read: Table 1, Compounds A1 to A294, read-out: Dlat IC50 category.

Like-named read-outs stand apart in the source and are kept apart here. A value given as a limit tells only on which side of the number the result lay.

Regarding `O=C(O)c1cccc(NN2C(=O)C(=Cc3ccc(-c4ccc(Cl)cc4)o3)SC2=S)c1` [Compound D18, 3-{5-[1-[5-(4-chloro-phenyl)-furan-2-yl]-methylidene]-4-oxo-2-thioxo-thiazolidin-3-ylamino}-benzoic acid], where the note is “Dlat IC50 category”, the IC50 (usually the midpoint of a concentration-inhibition curve) is below 10 µM.

Regarding `Cc1c(C(=O)O)cccc1N1C(=O)C(=Cc2ccc(-c3ccc(C(C)(C)c4ccccc4)cc3)o2)SC1=S` [Compound A98], the IC50 under setting [1] was below 10 µM.

In the case of `CCCc1ccc(-c2ccc(C=C3SC(=S)N(c4cc(C(=O)O)ccc4F)C3=O)o2)cc1` [Compound A270], the IC50 under setting [1] is below 10 µM.

`O=C(O)c1ccc(F)c(N2C(=O)C(=Cc3ccc(-c4ccccc4Cl)s3)SC2=S)c1` [Compound A190]: the IC50 under setting [1] is below 10 µM.

Turning to `NS(=O)(=O)c1ccc(N2C(=O)C(=Cc3ccc(-c4ccc(Oc5ccccc5)cc4)o3)SC2=S)cc1` [Compound A15], under setting [1], the IC50 was above 41 µM.

As to `NS(=O)(=O)c1cccc(N2C(=O)C(=Cc3ccc(-c4ccc(Cl)cc4)o3)SC2=S)c1` [Compound A27], the IC50 under setting [1] was below 10 µM.

For the setting “Dlat IC50 category”, `O=C(O)CN1C(=O)C(=Cc2ccc(-c3cccc(Cl)c3Cl)o2)SC1=S` [Compound B85] gave an IC50 below 10 µM.

Take `COc1cc(F)ccc1-c1ccc(C=C2SC(=S)N(c3cccc(C(=O)O)c3)C2=O)o1` [Compound A175]: the half-maximal inhibitory concentration (IC50) under setting [1] was below 10 µM.

On to `CC(=O)NS(=O)(=O)c1ccc(N2C(=O)C(=Cc3ccc(-c4ccc(Cl)c(Cl)c4)o3)SC2=S)cc1` [Compound A30], for which the IC50 under setting [1] was below 10 µM.

Take `O=C(O)C(Cc1ccc(O)c(O)c1)N1C(=O)C(=Cc2ccc(-c3ccccc3Cl)o2)SC1=S` (stereo not drawn) [Compound B54]: the IC50 (Dlat IC50 category) was in the range of 11 to 40 µM.

On to `NS(=O)(=O)c1ccc(N2C(=O)C(=Cc3ccc(-c4ccc(Cl)c(Cl)c4)o3)SC2=S)cc1` [Compound A9], for which, under setting [1], the IC50 fell in the range of 11 to 40 µM.

For the molecule `CC(C)Oc1ccc(-c2ccc(C=C3SC(=S)N(c4cc(C(=O)O)ccc4F)C3=O)o2)cc1` [Compound A241], the IC50 under setting [1] is below 10 µM.

Turning to `CNS(=O)(=O)c1ccc(-c2ccc(C=C3SC(=S)N(c4ccc(F)c(C(=O)O)c4)C3=O)o2)cc1` [Compound A287], the IC50 under setting [1] is 11 to 40 µM.

Under “Dlat IC50 category”, `O=C(O)C1CCCC(N2C(=O)C(=Cc3ccccc3OCc3ccccc3Cl)SC2=S)C1` (stereo not drawn) [Compound C33, 3-{5-[2-(2-Chloro-benzyloxy)-benzylidene]-4-oxo-2-thioxo-thiazolidin-3-yl}-cyclohexanecarboxylic acid] came in with an IC50 of 11 to 40 µM.

For the molecule `CSc1ccccc1-c1ccc(C=C2SC(=S)N(c3cccc(C(=O)O)c3)C2=O)o1` [Compound A185], the half-maximal inhibitory concentration (IC50) under setting [1] was below 10 µM.

Consider `Cc1ccc(-c2ccc(C=C3SC(=S)N(c4cc(C(=O)O)ccc4F)C3=O)o2)c(F)c1` [Compound A151], for which the IC50 under setting [1] was below 10 µM.

Turning to `CSc1ccc(-c2ccc(C=C3SC(=S)N(C4CCCC(C(=O)NC(CO)(CO)CO)C4)C3=O)o2)cc1` (stereo not drawn) [Compound U7, 3-{5-[1-[5-(4-Methylsulfanyl-phenyl)-furan-2-yl]-methylidene]-4-oxo-2-thioxo-thiazolidin-3-yl}-cyclohexanecarboxylic acid (2-hydroxy-1,1-bis-hydroxymethyl-ethyl)-amide], the half-maximal inhibitory concentration (IC50) (Dlat IC50 category, Table 21, Prodrugs (Examples U1 to U10)) is 41 to 80 µM.

In the case of `O=C(O)c1cccc(N2C(=O)C(=Cc3cc(-c4cccc(C(F)(F)F)c4)co3)SC2=S)c1` [Compound A28], under setting [1], the IC50 is below 10 µM.

Take `O=C(O)c1ccc(-c2ccc(C=C3SC(=S)N(c4cccc(O)c4)C3=O)o2)cc1` [Compound A290]: the half-inhibitory concentration (IC50) under setting [1] is below 10 µM.

For `Cc1ccccc1-c1cccc(C=C2SC(=S)N(Nc3ccccc3C(=O)O)C2=O)n1` [Compound D15, 2-[4-Oxo-2-thioxo-5-(6-o-tolyl-pyridin-2-ylmethylene)-thiazolidin-3-ylamino]-benzoic acid], under “Dlat IC50 category”, the IC50 was 11 to 40 µM.

With “2-{5-[2-(2-Chloro-benzyloxy)-benzylidene]-4-oxo-2-thioxo-thiazolidin-3-ylamino}-benzoic acid [Compound D32]”, the IC50 (read-out: Dlat IC50 category) is below 10 µM.

`CCCc1ccc(-c2ccc(C=C3SC(=S)N(c4ccc(F)c(C(=O)O)c4)C3=O)o2)cc1` [Compound A271]: the IC50 under setting [1] was below 10 µM.

For the setting “Dlat IC50 category”, `O=C(O)C1CCCC(N2C(=O)C(=Cc3ccc(-c4ccc(C5CCCCC5)cc4)o3)SC2=S)C1` (stereo not drawn) [Compound C2, 3-{5-[1-[5-(4-cyclohexyl-phenyl)-furan-2-yl]-methylidene]-4-oxo-2-thioxo-thiazolidin-3-yl}-cyclohexanecarboxylic acid] returned an IC50 below 10 µM.

Take `Cc1ccc(-c2ccc(C=C3SC(=S)N(c4cc(C(=O)O)cc(C(F)(F)F)c4)C3=O)o2)cc1` [Compound A224]: under setting [1], the IC50 is below 10 µM.

In turn, `CSc1ccc(-c2ccc(C=C3SC(=S)N(C4CCCC(C(=O)O)C4)C3=O)o2)cc1` (stereo not drawn) [Compound C64, 3-{5-[1-[5-(4-methylsulfanyl-phenyl)-furan-2-yl]-methylidene]-4-oxo-2-thioxo-thiazolidin-3-yl}-cyclohexanecarboxylic acid] yielded an IC50 (Dlat IC50 category) below 10 µM.

In the case of `O=C(O)C(c1ccccc1)N1C(=O)C(=Cc2cc(-c3cccc(C(F)(F)F)c3)co2)SC1=S` (stereo not drawn) [Compound B38], the half-inhibitory concentration (IC50) (Dlat IC50 category) was below 10 µM.

With `O=C(O)CN1C(=O)C(=Cc2ccc(-c3ccc(-c4ccccc4)cc3)o2)SC1=S` [Compound B16], where the note is “Dlat IC50 category”, the IC50 was below 10 µM.

Take `Cc1cc(C)c(-c2ccc(C=C3SC(=S)N(C4CCCC(C(=O)O)C4)C3=O)o2)c(C)c1` (stereo not drawn) [Compound C28, 3-{4-Oxo-2-thioxo-5-[5-(2,4,6-trimethyl-phenyl)-furan-2-ylmethylene]-thiazolidin-3-yl}-cyclohexanecarboxylic acid]: the IC50 (Dlat IC50 category) was below 10 µM.

For `O=C(O)c1cc(N2C(=O)C(=Cc3ccc(-c4ccccc4Cl)o3)SC2=S)ccc1F` [Compound A255], the IC50 under setting [1] was 11 to 40 µM.

As for `Cc1ccccc1-c1cccc(C=C2SC(=S)N(c3cccc(C(=O)O)c3)C2=O)c1` [Compound A173], under setting [1], the IC50 lay within 11 to 40 µM.

For `Cc1cc(Cl)ccc1-c1ccc(C=C2SC(=S)N(c3cc(C(=O)O)ccc3F)C2=O)o1` [Compound A170], under setting [1], the IC50 is below 10 µM.

As for `O=C(O)C(c1ccccc1)N1C(=O)C(=Cc2ccc(-c3ccccc3Cl)o2)SC1=S` (stereo not drawn) [Compound B1], the IC50 (Dlat IC50 category) is below 10 µM.

Consider `Cc1ccccc1-c1ccc(C=C2SC(=S)N(C(C)C(=O)O)C2=O)o1` (stereo not drawn) [Compound B97], for which, for the setting “Dlat IC50 category”, the half-inhibitory concentration (IC50) was 11 to 40 µM.

In turn, `O=C(O)CCCCCN1C(=O)C(=Cc2ccc(-c3cccc(Cl)c3)o2)SC1=S` [Compound B12] displayed an IC50 (Dlat IC50 category) below 10 µM.

With `CS(=O)(=O)c1ccc(-c2ccc(C=C3SC(=S)N(c4ccc(F)c(C(=O)O)c4)C3=O)o2)cc1` [Compound A268], under setting [1], the IC50 is below 10 µM.

With `CC(C)c1ccc(-c2ccc(C=C3SC(=S)N(C(C(=O)O)c4ccccc4)C3=O)o2)cc1` (stereo not drawn) [Compound B66], where the note is “Dlat IC50 category”, the IC50 is below 10 µM.

The molecule `CC(C(=O)O)N1C(=O)C(=Cc2ccc(-c3cccc(C(F)(F)F)c3)o2)SC1=S` (stereo not drawn) [Compound B100] registered an IC50 (Dlat IC50 category) below 10 µM.

For `O=C(O)C(Cc1ccc(O)c(O)c1)N1C(=O)C(=Cc2ccc(-c3ccc(Cc4ccccc4)cc3)o2)SC1=S` (stereo not drawn) [Compound B59], for the setting “Dlat IC50 category”, the IC50 was below 10 µM.

`O=C(O)c1ccccc1NN1C(=O)C(=Cc2ccc(-c3ccc4[nH]ccc4c3)o2)SC1=S` [Compound D22, 2-{5-[5-(1H-Indol-5-yl)-furan-2-ylmethylene]-4-oxo-2-thioxo-thiazolidin-3-ylamino}-benzoic acid] gave an IC50 (Dlat IC50 category) below 10 µM.

With `Cc1ccc(C(=O)O)cc1N1C(=O)C(=Cc2ccc(-c3ccc(C(C)(C)c4ccccc4)cc3)o2)SC1=S` [Compound A102], the IC50 under setting [1] was below 10 µM.

Molecule `O=C(O)C1CCCC(N2C(=O)C(=Cc3ccc(-c4ccc(C(F)(F)F)cc4)o3)SC2=S)C1` (stereo not drawn) [Compound C37, 3-{4-oxo-2-thioxo-5-[1-[5-(4-trifluoromethyl-phenyl)-furan-2-yl]-methylidene]-thiazolidin-3-yl}-cyclohexanecarboxylic acid] returned an IC50 (Dlat IC50 category) below 10 µM.

In the case of `CS(=O)(=O)c1ccc(-c2ccc(C=C3SC(=S)N(C4CCCC(C(=O)O)C4)C3=O)o2)cc1` (stereo not drawn) [Compound C58, 3-{5-[5-(4-Methanesulfonyl-phenyl)-furan-2-ylmethylene]-4-oxo-2-thioxo-thiazolidin-3-yl}-cyclohexanecarboxylic acid], the IC50 (Dlat IC50 category) is below 10 µM.

For the molecule `CC(C)C(C(=O)O)N1C(=O)C(=Cc2ccc(-c3ccccc3Cl)o2)SC1=S` (stereo not drawn) [Compound B101], the IC50 (Dlat IC50 category) is below 10 µM.

In turn, `O=C(O)c1cccc(CCN2C(=O)C(=Cc3ccc(-c4cc(Cl)ccc4Cl)o3)SC2=S)c1` [Compound G4] returned a half-maximal inhibitory concentration (IC50) (Dlat IC50 category, Table 7, Compounds G1 to G4) below 10 µM.

Turning to `CC(C)c1cccc(-c2ccc(C=C3SC(=S)N(c4ccc(O)c(C(=O)O)c4)C3=O)o2)c1` [Compound A61], the IC50 under setting [1] is below 10 µM.

The molecule `O=C(O)c1ccc(NN2C(=O)C(=Cc3ccc(-c4cccc(C(F)(F)F)c4)o3)SC2=S)cc1` [Compound D37, 4-{4-oxo-2-thioxo-5-[5-(3-trifluoromethyl-phenyl)-furan-2-ylmethylene]-thiazolidin-3-ylamino}-benzoic acid] came in with an IC50 (Dlat IC50 category) below 10 µM.

The molecule `CCc1ccc(-c2ccc(C=C3SC(=S)N(C4CCCC(C(=O)O)C4)C3=O)o2)cc1` (stereo not drawn) [Compound C36, 3-{5-[1-[5-(4-ethyl-phenyl)-furan-2-yl]-methylidene]-4-oxo-2-thioxo-thiazolidin-3-yl}-cyclohexanecarboxylic acid] registered an IC50 (Dlat IC50 category) below 10 µM.

Take `CCCCc1ccc(-c2ccc(C=C3SC(=S)N(c4cccc(C(=O)O)c4)C3=O)o2)cc1` [Compound A263]: the IC50 under setting [1] was below 10 µM.
